Test results taken from US8492559B2, “Substituted indole compounds” (Gruenenthal GmbH, priority 2009, dated 2013).

The compounds below were run against T1, B1R receptor of the rat (rB1R) (Rattus norvegicus, UniProt P97583) (assay: Functional investigation on the bradykinin 1 receptor (B1R), FLIPR Ca2+ assay, rB1R cells). Conditions: CHO-K1, 10 μM test substance; CHO K1 cells with rat B1R; agonist Des-Arg9 bradykinin; % of maximum achievable inhibition; read-out: B1R antagonism, rat [10 μM] % inhibition.
T1 construct: expressed in transfected cells; host or cells: CHO K1 cells
T1 sequence (P97583 1-337): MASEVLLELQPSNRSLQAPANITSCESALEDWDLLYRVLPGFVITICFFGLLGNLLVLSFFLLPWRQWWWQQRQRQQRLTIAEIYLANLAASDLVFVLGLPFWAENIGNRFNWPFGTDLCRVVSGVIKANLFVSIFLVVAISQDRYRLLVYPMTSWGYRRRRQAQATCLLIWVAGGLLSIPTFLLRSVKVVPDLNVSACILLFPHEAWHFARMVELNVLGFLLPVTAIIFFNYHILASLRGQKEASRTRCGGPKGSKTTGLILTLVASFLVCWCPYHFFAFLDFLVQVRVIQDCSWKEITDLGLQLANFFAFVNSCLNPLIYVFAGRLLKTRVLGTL
Assay type: cell-based
Procedure, shortened: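 Cells plated at 20,000-35,000/well, incubated overnight at 37° C, loaded with Fluo-4 (2.13 μM, 60 min, 37° C, or 2.5 μM in buffer A), then read in FLIPR (λex 488, λem 540 nm). Agonist: Lys-Des-[MUT] bradykinin (0.5 nM) or Des-[MUT] bradykinin (100 nM). IC50 from % inhibition versus maximum, n=2-3, N>=2.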

Structure (SMILES) | inhibition at 10 µM [%]
Cc1cc(S(=O)(=O)Nc2ccc3ccn(CCC(=O)NCCC4CCN(c5ccncc5)CC4)c3c2)c(C)cc1Cl [G_CC-71, 3-[6-[[(4-Chloro-2,5-dimethyl-phenyl)sulfonyl]amino]-1H-indol-1-yl]-N-[2-(1-pyridin-4-yl-piperidin-4-yl)-ethyl]-propionamide] | 54
O=C(CCn1ccc2ccc(N3Cc4cccc(Cl)c4C3=O)cc21)NCCC1CCN(c2ccncc2)CC1 [G_CC-72, 3-[6-(4-Chloro-3-oxo-1,2-dihydro-isoindol-2-yl)-1H-indol-1-yl]-N-[2-(1-pyridin-4-yl-piperidin-4-yl)-ethyl]-propionamide] | 71
Cc1cc(S(=O)(=O)Nc2cccc3ccn(CCC(=O)NCCN4CCC(c5cccs5)(N(C)C)CC4)c23)c(C)cc1Cl [G_CC-73, 3-[7-[[(4-Chloro-2,5-dimethyl-phenyl)sulfonyl]amino]-1H-indol-1-yl]-N-[2-(4-dimethylamino-4-thiophen-2-yl-piperidin-1-yl)-ethyl]-propionamide] | 55
Cc1cc(S(=O)(=O)Nc2ccc3ccn(CCC(=O)NCCN4CCC(c5cccs5)(N(C)C)CC4)c3c2)c(C)cc1Cl [G_CC-74, 3-[6-[[(4-Chloro-2,5-dimethyl-phenyl)sulfonyl]amino]-1H-indol-1-yl]-N-[2-(4-dimethylamino-4-thiophen-2-yl-piperidin-1-yl)-ethyl]-propionamide] | 51
COc1cc(C)c(S(=O)(=O)Nc2cccc3ccn(CC(=O)N(C)CCC4CCC(c5ccccc5)(N(C)C)CC4)c23)c(C)c1 (stereo not shown) [G_CC-77, N-[2-(4-Dimethylamino-4-phenyl-cyclohexyl)-ethyl]-2-[7-[[(4-methoxy-2,6-dimethyl-phenyl)sulfonyl]amino]-1H-indol-1-yl]-N-methyl-acetamide] | 104
COc1cc(C)c(S(=O)(=O)Nc2ccc3ccn(CCC(=O)N(C)CCN4CCC(c5cccc(F)c5)(N5CCN(C)CC5)CC4)c3c2)c(C)c1 [G_CC-81, N-[2-[4-(3-Fluorophenyl)-4-(4-methyl-piperazin-1-yl)-piperidin-1-yl]-ethyl]-3-[6-[[(4-methoxy-2,6-dimethyl-phenyl)sulfonyl]amino]-1H-indol-1-yl]-N-methyl-propionamide] | 103
COc1cc(C)c(S(=O)(=O)Nc2cccc3ccn(CC(=O)N4CCC(c5cccc(F)c5)(N5CCN(C)CC5)CC4)c23)c(C)c1 [G_CC-84, N-[1-[2-[4-(3-Fluorophenyl)-4-(4-methyl-piperazin-1-yl)-piperidin-1-yl]-2-oxo-ethyl]-1H-indol-7-yl]-4-methoxy-2,6-dimethyl-benzenesulfonic acid amide] | 102
COc1cc(C)c(S(=O)(=O)Nc2cccc3ccn(CC(=O)N4CCC(Oc5ccncc5)CC4)c23)c(C)c1 [G_CC-92, 4-Methoxy-2,6-dimethyl-N-[1-[2-oxo-2-(4-pyridin-4-yloxy-piperidin-1-yl)-ethyl]-1H-indol-7-yl]-benzenesulfonic acid amide] | 98
COc1cc(C)c(S(=O)(=O)Nc2ccc3ccn(CC(=O)N(C)CCC4CCC(c5ccccc5)(N(C)C)CC4)c3c2)c(C)c1 (stereo not shown) [G_CC-95, N-[2-(4-Dimethylamino-4-phenyl-cyclohexyl)-ethyl]-2-[6-[[(4-methoxy-2,6-dimethyl-phenyl)sulfonyl]amino]-1H-indol-1-yl]-N-methyl-acetamide] | 96
COc1cc(C)c(S(=O)(=O)Nc2ccc3ccn(CC(=O)N(C)CCN4CCC(c5cccc(F)c5)(N5CCN(C)CC5)CC4)c3c2)c(C)c1 [G_CC-99, N-[2-[4-(3-Fluorophenyl)-4-(4-methyl-piperazin-1-yl)-piperidin-1-yl]-ethyl]-2-[6-[[(4-methoxy-2,6-dimethyl-phenyl)sulfonyl]amino]-1H-indol-1-yl]-N-methyl-acetamide] | 93
COc1cc(C)c(S(=O)(=O)Nc2cccc3ccn(CC(=O)N(C)CCN4CCC(c5cccc(F)c5)(N5CCN(C)CC5)CC4)c23)c(C)c1 [G_CC-102, N-[2-[4-(3-Fluorophenyl)-4-(4-methyl-piperazin-1-yl)-piperidin-1-yl]-ethyl]-2-[7-[[(4-methoxy-2,6-dimethyl-phenyl)sulfonyl]amino]-1H-indol-1-yl]-N-methyl-acetamide] | 89
O=C(Cn1ccc2ccc(N3Cc4cccc(Cl)c4C3=O)cc21)NCCC1CCN(c2ccncc2)CC1 [G_CC-103, 2-[6-(4-Chloro-3-oxo-1,2-dihydro-isoindol-2-yl)-1H-indol-1-yl]-N-[2-(1-pyridin-4-yl-piperidin-4-yl)-ethyl]-acetamide] | 88
O=C(CCn1ccc2cccc(N3Cc4cccc(Cl)c4C3=O)c21)N1CCC2(CC1)CCN(c1ccncc1)CC2 [G_CC-106, 7-Chloro-2-[1-[3-oxo-3-(3-pyridin-4-yl-3,9-diazaspiro[5.5]undecan-9-yl)-propyl]-1H-indol-7-yl]-2,3-dihydro-isoindol-1-one] | 86
COc1cc(C)c(S(=O)(=O)Nc2ccc3ccn(CC(=O)N4CCC(CNC(=O)c5ccncc5)(N5CCN(C)CC5)CC4)c3c2)c(C)c1 [G_CC-108, N-[[1-[2-[6-[[(4-Methoxy-2,6-dimethyl-phenyl)sulfonyl]amino]-1H-indol-1-yl]-acetyl]-4-(4-methyl-piperazin-1-yl)-piperidin-4-yl]-methyl]-pyridine-4-carboxylic acid amide] | 84
O=C(Cn1ccc2ccc(N3Cc4cccc(Cl)c4C3=O)cc21)NCC1CCN(c2ccncc2)CC1 [G_CC-111, 2-[6-(4-Chloro-3-oxo-1,2-dihydro-isoindol-2-yl)-1H-indol-1-yl]-N-[(1-pyridin-4-yl-piperidin-4-yl)-methyl]-acetamide] | 81
CN1CCN(C2(c3cccc(F)c3)CCN(CCN(C)C(=O)Cn3ccc4ccc(N5Cc6cccc(Cl)c6C5=O)cc43)CC2)CC1 [G_CC-113, 2-[6-(4-Chloro-3-oxo-1,2-dihydro-isoindol-2-yl)-1H-indol-1-yl]-N-[2-[4-(3-fluorophenyl)-4-(4-methyl-piperazin-1-yl)-piperidin-1-yl]-ethyl]-N-methyl-acetamide] | 78
COc1cc(C)c(S(=O)(=O)Nc2ccc3ccn(CCC(=O)N(C)CCCN4CCN(c5ccncc5)CC4)c3c2)c(C)c1 [G_CC-116, 3-[6-[[(4-Methoxy-2,6-dimethyl-phenyl)sulfonyl]amino]-1H-indol-1-yl]-N-methyl-N-[3-(4-pyridin-4-yl-piperazin-1-yl)-propyl]-propionamide] | 74
COc1cc(C)c(S(=O)(=O)Nc2ccc3ccn(CCC(=O)N(C)CCC4CCC(c5ccccc5)(N(C)C)CC4)c3c2)c(C)c1 (stereo not shown) [G_CC-117, N-[2-(4-Dimethylamino-4-phenyl-cyclohexyl)-ethyl]-3-[6-[[(4-methoxy-2,6-dimethyl-phenyl)sulfonyl]amino]-1H-indol-1-yl]-N-methyl-propionamide] | 74
CN(CCCN1CCN(c2ccncc2)CC1)C(=O)CCn1ccc2ccc(N3Cc4cccc(Cl)c4C3=O)cc21 [G_CC-119, 3-[6-(4-Chloro-3-oxo-1,2-dihydro-isoindol-2-yl)-1H-indol-1-yl]-N-methyl-N-[3-(4-pyridin-4-yl-piperazin-1-yl)-propyl]-propionamide] | 72
COc1cc(C)c(S(=O)(=O)Nc2ccc3ccn(CC(=O)N4CCC(CCN5CCCC5)CC4)c3c2)c(C)c1 [G_CC-120, 4-Methoxy-2,6-dimethyl-N-[1-[2-oxo-2-[4-(2-pyrrolidin-1-yl-ethyl)-piperidin-1-yl]-ethyl]-1H-indol-6-yl]-benzenesulfonic acid amide] | 72
O=C(CCn1ccc2cccc(N3Cc4cccc(Cl)c4C3=O)c21)NCC1CCN(c2ccncc2)CC1 [G_CC-123, 3-[7-(4-Chloro-3-oxo-1,2-dihydro-isoindol-2-yl)-1H-indol-1-yl]-N-[(1-pyridin-4-yl-piperidin-4-yl)-methyl]-propionamide] | 67
CN(CCC1CCC(c2ccccc2)(N(C)C)CC1)C(=O)CCn1ccc2ccc(N3Cc4cccc(Cl)c4C3=O)cc21 (stereo not shown) [G_CC-127, 3-[6-(4-Chloro-3-oxo-1,2-dihydro-isoindol-2-yl)-1H-indol-1-yl]-N-[2-(4-dimethylamino-4-phenyl-cyclohexyl)-ethyl]-N-methyl-propionamide] | 63
CN1CCN(C2(c3cccc(F)c3)CCN(C(=O)Cn3ccc4ccc(N5Cc6cccc(Cl)c6C5=O)cc43)CC2)CC1 [G_CC-128, 7-Chloro-2-[1-[2-[4-(3-fluorophenyl)-4-(4-methyl-piperazin-1-yl)-piperidin-1-yl]-2-oxo-ethyl]-1H-indol-6-yl]-2,3-dihydro-isoindol-1-one] | 61
CN(CCCN1CCN(c2ccncc2)CC1)C(=O)Cn1ccc2ccc(N3Cc4cccc(Cl)c4C3=O)cc21 [G_CC-138, 2-[6-(4-Chloro-3-oxo-1,2-dihydro-isoindol-2-yl)-1H-indol-1-yl]-N-methyl-N-[3-(4-pyridin-4-yl-piperazin-1-yl)-propyl]-acetamide] | 52
COc1cc(C)c(S(=O)(=O)Nc2cccc3ccn(CC(=O)N4CCN(C(=O)c5cccnc5)CC4)c23)c(C)c1 [G_CC-139, 4-Methoxy-2,6-dimethyl-N-[1-[2-oxo-2-[4-(pyridin-3-carbonyl)-piperazin-1-yl]-ethyl]-1H-indol-7-yl]-benzenesulfonic acid amide] | 50
